Values quoted from earlier work, collected in patent US20120237563A1, “CONTROLLED-RELEASE FORMULATIONS OF […] AND USES THEREOF” (UNIVERSITY OF FLORIDA RESEARCH […]., priority 2009, published 2012).

Conditions: clinical studies

COc1ccc(/C=C2\CCCN=C2c2cccnc2)c(OC)c1 [DMXBA, 3-(2,4-dimethoxybenzylidene)-anabaseine]
Safety of large oral doses: without adverse effects | Half-life (oral): two
